Measurements taken from US9277761B2, “Nutrition trace element composition” (priority 2003, dated 2016).
Read-outs that look alike come from different tables or passages of the source.

Experiments:
[1] = cited from earlier work
[2] = test system: T-lymphocytes and natural killer cells; details: humans, 200 μg of selenium a day for eight weeks; cited from earlier work
[3] = test system: humans; details: in vivo, cited from earlier work
[4] = cited from earlier work; remark: listed apart in the source
[5] = test system: humans; details: cited from earlier work; for Outcome of inadvertent intravenous infusion: person
[6] = Study of 52 patients receiving parenteral nutrition: zinc level in serum and whole blood; type: in vivo, humans
Procedure: In a study of 52 patients receiving parenteral nutrition, whereby the patients had haemorrhages, polytrauma/trauma and tumours, in the Vogtland-Klinikum Plauen GmbH, the trace element status of the patients was determined throughout the course of the therapy on the basis of routine medication and routine supplementation.
The goal was to establish whether the routinely administered trace element substitution led to a satisfactory supply of trace elements. For this purpose, the serum and whole blood levels of the trace elements chromium, iron, fluorine, iodine, copper, manganese, molybdenum, selenium and zinc were determined daily, for a minimum of 3 and a maximum of 18 days.
Throughout the above-mentioned observation period, the patients received the normal routine supplementation with the preparations Inzolen HK, Inzolen® sine NaCL, Selenase® and Unizink®, at various times and in various dosages. The trace elements cobalt, copper, manganese, selenium and zinc were administered by means of these preparations, in addition to the macro elements chloride, magnesium, potassium and sodium.
Corresponding to the previous routine, the Inzolen® administrations were made dependent on the daily determined serum potassium level, with the normal range being targeted. Zinc and selenium administration took place on the basis of experience in certain illness situations. The above-mentioned determination of the further macro element and trace element levels was only intended for retrospective observation of the trace element status, and was not included in the daily decision process for any supplementation.
The following reference ranges were the basis for the evaluation:
The second step was to establish what percent of the patients' trace element levels were below, within and above the reference range throughout the entire observation period (3-18 days).
Moreover, the behaviour curves of the trace element levels in the serum and whole blood of each patient were evaluated, whereby performance of further treatments/therapies (Op, CT, accompanying medication, etc.) was taken into consideration.

[7] = 20 healthy young men, 160 mg zinc/d for 5 weeks
[8] = Ø, entire observation period (3-18 days)

## [Se] [Selenium]
[1]; in vivo
  Portion of selenium taken in with food that leaves the organism renally: 50-70%
[2]
  Formation of the interleukin-2 receptor, lymphocyte proliferation, cell-destroying effect of T-lymphocytes and natural killer cells: increases
[3]; po
  Recommended maximum single oral dose: at most 50 μg of selenium/kg BW
[3]
  Dosage seen as harmless: up to 500 μg of selenium a day
  Maximum safe ingestion over a longer time frame (WHO 1996): 400 μg of selenium a day
  Recommended maximum dose for long-term use: at most 5 μg of selenium/kg BW
  Selenium content of whole blood from which symptoms can appear: ≥ 1000 μg/l of whole blood
  Selenium ingestion in areas with chronic selenium poisonings: 3-7 mg of selenium a day
Concluded from the results
  Selenium substitution required (long-term, continuous): 1000 µg/day
Higher versus reduced selenium level
  Tendency towards infection: reduced tendency towards infection
human, in vivo
  Selenium level in the serum: rose up into the reference range
  Selenium whole blood levels: rose only to just below the reference range

## [Zn] [Zinc]
[4]; humans
  Concentration in the cerebral spinal fluid relative to plasma concentration: a tenth
[4]; in vivo
  Portion excreted through the faeces: 90%
[4]; physiological conditions, roughly
  Portion resorbed from the nourishment: 20-30%
[5]; 150 mg of zinc a day over 2 years
  Effect of repeated administration: copper deficiency
[5]; 1.5 g zinc over 60 hours
  Outcome of inadvertent intravenous infusion: ended fatally
[5]; [7]
  HDL cholesterol level: significantly reduced
  Total cholesterol, triglycerides and LDL cholesterol: normal levels
[5]; healthy young women, 100 mg daily for 8 weeks
  Effect on the blood lipid levels: no effect
[5]; toxic range not starting until quantities in the grams
  Toxicity: low toxicity
[6]; Day 1
  Zinc in serum, patients Above reference range: 4%
  Zinc in serum, patients Below reference range: 76%
  Zinc in serum, patients Within reference range: 20%
  Zinc in whole blood, patients Above reference range: 10%
  Zinc in whole blood, patients Below reference range: 6%
  Zinc in whole blood, patients Within reference range: 84%
[6]; Day 2
  Zinc in serum, patients Above reference range: 2%
  Zinc in serum, patients Below reference range: 85%
  Zinc in serum, patients Within reference range: 13%
  Zinc in whole blood, patients Above reference range: 8%
  Zinc in whole blood, patients Below reference range: 18%
  Zinc in whole blood, patients Within reference range: 75%
[6]; Day 3
  Zinc in serum, patients Above reference range: 0%
  Zinc in serum, patients Below reference range: 78%
  Zinc in serum, patients Within reference range: 22%
  Zinc in whole blood, patients Above reference range: 8%
  Zinc in whole blood, patients Below reference range: 12%
  Zinc in whole blood, patients Within reference range: 80%
[6]; Day 4
  Zinc in serum, patients Above reference range: 0%
  Zinc in serum, patients Below reference range: 86%
  Zinc in serum, patients Within reference range: 14%
  Zinc in whole blood, patients Above reference range: 5%
  Zinc in whole blood, patients Below reference range: 14%
  Zinc in whole blood, patients Within reference range: 81%
[6]; Day 5
  Zinc in serum, patients Above reference range: 3%
  Zinc in serum, patients Below reference range: 80%
  Zinc in serum, patients Within reference range: 17%
  Zinc in whole blood, patients Above reference range: 6%
  Zinc in whole blood, patients Below reference range: 17%
  Zinc in whole blood, patients Within reference range: 77%
[6]; Day 6
  Zinc in serum, patients Above reference range: 4%
  Zinc in serum, patients Below reference range: 68%
  Zinc in serum, patients Within reference range: 29%
  Zinc in whole blood, patients Above reference range: 4%
  Zinc in whole blood, patients Below reference range: 7%
  Zinc in whole blood, patients Within reference range: 89%
[6]; Day 7
  Zinc in serum, patients Above reference range: 0%
  Zinc in serum, patients Below reference range: 63%
  Zinc in serum, patients Within reference range: 38%
  Zinc in whole blood, patients Above reference range: 8%
  Zinc in whole blood, patients Below reference range: 8%
  Zinc in whole blood, patients Within reference range: 83%
[6]; Day 8
  Zinc in serum, patients Above reference range: 0%
  Zinc in serum, patients Below reference range: 50%
  Zinc in serum, patients Within reference range: 50%
  Zinc in whole blood, patients Above reference range: 8%
  Zinc in whole blood, patients Below reference range: 4%
  Zinc in whole blood, patients Within reference range: 88%
[6]; Day 9
  Zinc in serum, patients Above reference range: 4%
  Zinc in serum, patients Below reference range: 43%
  Zinc in serum, patients Within reference range: 52%
  Zinc in whole blood, patients Above reference range: 9%
  Zinc in whole blood, patients Below reference range: 0%
  Zinc in whole blood, patients Within reference range: 91%
[6]; Day 10
  Zinc in serum, patients Above reference range: 5%
  Zinc in serum, patients Below reference range: 33%
  Zinc in serum, patients Within reference range: 62%
  Zinc in whole blood, patients Above reference range: 5%
  Zinc in whole blood, patients Below reference range: 0%
  Zinc in whole blood, patients Within reference range: 95%
[6]; Day 11
  Zinc in serum, patients Above reference range: 16%
  Zinc in serum, patients Below reference range: 16%
  Zinc in serum, patients Within reference range: 68%
  Zinc in whole blood, patients Above reference range: 11%
  Zinc in whole blood, patients Below reference range: 0%
  Zinc in whole blood, patients Within reference range: 89%
[6]; Day 12
  Zinc in serum, patients Above reference range: 7%
  Zinc in serum, patients Below reference range: 20%
  Zinc in serum, patients Within reference range: 73%
  Zinc in whole blood, patients Above reference range: 7%
  Zinc in whole blood, patients Below reference range: 7%
  Zinc in whole blood, patients Within reference range: 87%
[6]; Day 13
  Zinc in serum, patients Above reference range: 14%
  Zinc in serum, patients Below reference range: 7%
  Zinc in serum, patients Within reference range: 79%
  Zinc in whole blood, patients Above reference range: 7%
  Zinc in whole blood, patients Below reference range: 7%
  Zinc in whole blood, patients Within reference range: 86%
[6]; Day 14
  Zinc in serum, patients Above reference range: 0%
  Zinc in serum, patients Below reference range: 8%
  Zinc in serum, patients Within reference range: 92%
  Zinc in whole blood, patients Above reference range: 0%
  Zinc in whole blood, patients Below reference range: 0%
  Zinc in whole blood, patients Within reference range: 100%
[6]; Day 15
  Zinc in serum, patients Above reference range: 0%
  Zinc in serum, patients Below reference range: 8%
  Zinc in serum, patients Within reference range: 92%
  Zinc in whole blood, patients Above reference range: 8%
  Zinc in whole blood, patients Below reference range: 0%
  Zinc in whole blood, patients Within reference range: 92%
[6]; Day 16
  Zinc in serum, patients Above reference range: 0%
  Zinc in serum, patients Below reference range: 9%
  Zinc in serum, patients Within reference range: 91%
  Zinc in whole blood, patients Above reference range: 9%
  Zinc in whole blood, patients Below reference range: 0%
  Zinc in whole blood, patients Within reference range: 91%
[6]; Day 17
  Zinc in serum, patients Above reference range: 10%
  Zinc in serum, patients Below reference range: 10%
  Zinc in serum, patients Within reference range: 80%
  Zinc in whole blood, patients Above reference range: 10%
  Zinc in whole blood, patients Below reference range: 0%
  Zinc in whole blood, patients Within reference range: 90%
[6]; Day 18
  Zinc in serum, patients Above reference range: 10%
  Zinc in serum, patients Below reference range: 10%
  Zinc in serum, patients Within reference range: 80%
  Zinc in whole blood, patients Above reference range: 20%
  Zinc in whole blood, patients Below reference range: 0%
  Zinc in whole blood, patients Within reference range: 80%
[6]; patients with normal whole blood zinc receiving zinc, even high administration
  Zinc level in the serum: scarcely influenced
[6]; [8]
  Zinc in serum, patients Above reference range: 14%
  Zinc in serum, patients Below reference range: 38%
  Zinc in serum, patients Within reference range: 49%
  Zinc in whole blood, patients Above reference range: 7%
  Zinc in whole blood, patients Below reference range: 5%
  Zinc in whole blood, patients Within reference range: 88%

## O=S(=O)([O-])[O-].[Zn+2] [ZnSO4]
[5]; adults
  Dose considered deadly for adults: 5 g
[5]; in vivo
  Dose resulting in vomiting: 1 to 2 g
[5]; total 7.4 g zinc within 60 hours
  Outcome of inadvertent intravenous infusion: death

## O=[74Se]([O-])[O-].[Na+].[Na+] [[^74Se] sodium selenite]
[1]; intravenous 82 μg of selenium, first 24 hours
  Dose excreted: 18%
[1]; peroral administration, first 24 hours
  Absorbed dose excreted through the urine: 12%
